Test results from PMC9655618 (Cancers, 2022).

Tests used:
[1] = test system: ERα, pS2 and PR mRNA in MCF-7 cells; experiment: Quantitative real-time PCR of ERα-regulated genes; format: cell-based, human; conditions: 3 h pretreatment, E2 10 nM 24 h; 32 5 µM, 35 10 µM, ICI 0.1 µM, 4-OHTAM 1 µM
Protocol: (§1) For gene expression analysis, MCF-7 and Ishikawa cells were deprived of steroid hormones by using a 10DCC-FBS medium for five days. Then, 1,500,000 cells/dish were seeded in 5DCC-FBS, followed by treatment with test compounds. Total RNA was isolated by using TRItidy G™ (Panreac Applichem ITW Reagents, Darmstadt, Germany). The concentration and purity of RNA were determined with a NanoDrop 1000 spectrophotometer (Wilmington, NC, USA). Then, 1 µg of total RNA was reversed and amplified with the iScriptTM kit (Bio-Rad) following the manufacturer’s protocol. SYBR Green PCR Master mix (Applied Biosystems, Bedford, MA, USA) reagent and exon-specific primers for ERα were used for Real-time quantitative PCR (qPCR). Gene expression was analyzed with an Mx3005P qPCR System (Agilent, Santa Clara, CA, USA), and cycle threshold values were calculated using MxPro qPCR Software (Agilent, CA, USA). Target gene expression was normalized to the expression of the 18S housekeeping gene. Data were expressed as relative expression values according to the comparative CT method for qPCR [42].

[2] = test system: ERα, pS2 and PR mRNA in Ishikawa cells; experiment: Quantitative real-time PCR of ERα-regulated genes; format: cell-based, human; conditions: for effect on E2-induced mRNA expression: 3 h pretreatment, E2 10 nM 24 h; for induction of basal mRNA level of PR gene: absence of E2
Protocol: as §1

Ishikawa cells = experiment: Real-time monitoring of cell proliferation and cytotoxicity (YOYO-1); conditions: for effect on growth of E2-depleted Ishikawa cells: 4-OHTAM 3 μM, compounds 5 µM, 7 days; for IC50: Homo sapiens, Ishikawa, 120 h, read-out: IC50, cell proliferation (AUC)
Protocol: (§2) To monitor long-term growth, human ER+ BC (T47-D, MCF-7, MCF-7/BUS), ER+ endometrial (Ishiwaka, High Point, NC, USA), or non-malignant breast (MCF-10A) cells were seeded at 3000–6000 cells per well. […] When indicated, cells were estrogen-deprived in a 10DCC-FBS supplemented medium for one week. […] Cytotoxicity was monitored by using YOYO-1 (Invitrogen, Waltham, MA, USA). Cell proliferation and cytotoxicity were monitored by sequential real-time microphotographs in an IncuCyte HD real-time imaging system (Essen BioScience, Hertfordshire, UK) for 5–10 days. The area under the curve (AUC) was then analyzed to know both the kinetics and dose-effect relationships. […] Next, cells were treated with VEH (0.05% DMSO) or test compounds for 5–10 days. Spheroid size and cell cytotoxicity were recorded with the Incucyte SX5 Live-Cell Analysis Instrument (Sartorius AG, Göttingen, Germany). To calculate the spheroid growth area, confluence measurements were taken considering the largest brightfield object area (µm^2). Cytotoxicity was monitored by using YOYO-1 (Essen Bioscience, Hertfordshire, UK).

[3] = as above; conditions: human, Ishikawa cells (ER+ endometrial cancer cells)
Protocol: as §2

MCF-7 cells [4] = experiment: Drug combination assay with 4-OHTAM (MTT, Chou-Talalay); conditions: for IC50: Homo sapiens, MCF7, 72 h, read-out: IC50, cell viability inhibition, single agent
Protocol: Cells were seeded at 5000 and 7500 cells, per well, respectively, and cell viability was assessed by MTT assays 72 h after treatment. Briefly, cells were incubated with constant ratio combinations of indicated test compounds by doubling dilutions of the individual drugs over a wide range of concentrations [43]. […] Dose-effect curves of the individual or combined compounds were plotted and assessed by the median effect method of Chou and Talalay [43] using Calcusyn software 2.0 (Biosoft, Cambridge, UK), thus obtaining the combination index (CI) values. CI values less than 1, equal to 1, and greater than 1 indicated synergism, addition, and antagonism, respectively.

T47D cells = experiment: Real-time monitoring of 2D cell growth (IncuCyte); format: cell-based; conditions: Homo sapiens, 120 h, complete estrogenic media (10%FBS), 5 days, AUC
MCF-7 cells [5] = experiment: Real-time monitoring of 2D cell growth (IncuCyte); format: cell-based; conditions: Homo sapiens, MCF7, 120 h; complete estrogenic media (10%FBS), 5 days, AUC
Protocol: as §2

[6] = test system: T47D cancer cell spheroids; experiment: Real-time monitoring of 3D tumor spheroid growth; format: cell-based, human; conditions: 8 days
[7] = test system: total STAT5 protein level in T47D cells; experiment: Immunoblotting; format: cell-based, human; conditions: 24–72 h
Protocol: Then, they were washed with ice-cold PBS supplemented with 1 mM ortovanadate and lysed with RIPA buffer containing protease and phosphatase inhibitors (Thermo Fisher Scientific, Waltham, MA, USA). Equal protein amounts were analyzed by SDS–PAGE, and transferred to nitrocellulose membranes (Thermo Fisher Scientific, Waltham, MA, USA), blocked with Tris-buffered saline/0.05% Tween 20 (TBS-T) containing 5% blotto (Merck, Darmstadt, Germany) or 5% BSA for total and phosphorylated proteins, respectively. Immunoblotting was carried out with mouse anti-ERα F-10 (Santa Cruz Biotech, Santa Cruz, CA, USA), rabbit total anti-STAT5 (Cell Signaling Technology, Leiden, The Netherlands) or mouse anti-polyubiquitin (EMD Millipore, Burlington, MA, USA). After washing, membranes were incubated with horseradish peroxidase-conjugated secondary antibodies (Bio-Rad) for 1 h at room temperature. The β-actin antibody (Santa Cruz Biotech, CA, USA) was used as the loading control. Finally, protein bands were visualized by using Clarity™ Western ECL Substrate (Bio-Rad) in the ChemiDoc XRS system (Bio-Rad) and were analyzed with Quantity One software (Bio-Rad).

[8] = test system: T47D estrogen-depleted cells; experiment: E2-induced proliferation of estrogen-depleted cells (AUC of growth kinetics); format: cell-based; conditions: E2-depleted conditions
Protocol: as §2

[9] = combination with 4-OHTAM, constant ratio, 72 h, CI <1 synergism

Structure (SMILES)	effect on E2-induced mRNA expression [1]	effect on E2-induced mRNA expression [2]	induction of basal mRNA level of PR gene [2]	effect on growth of E2-depleted Ishikawa cells (Ishikawa cells)	IC50 (Ishikawa cells)	EC50 at 5 days [3]	IC50 (MCF-7 cells [4])	CI for ED75 (MCF-7 cells [4]; [9])	CI for ED90 (MCF-7 cells [4]; [9])	IC50 (T47D cells)	IC50 (MCF-7 cells [5])	effect on spheroid growth [6]	effect on total STAT5 protein level [7]	estrogenic effect on growth [8]	CI for ED25 (MCF-7 cells [4]; [9])
O=C1C(c2ccc([N+](=O)[O-])cc2)=CC(O)(c2ccccc2)N1Cc1ccccc1 (centres unmarked) [compound 35, 1-benzyl-5-hydroxy-3-(4-nitrophenyl)-5-phenyl-1H-pyrrol-2(5H)-one]	inhibited E2-induced ERα, pS2 and PR mRNA expression	notably downregulated E2-induced ERα and PR mRNA levels	5 fold	this effect was not observed	3.81 µM	10 µM	2.27 µM	0.26 ± 0.07	0.32 ± 0.13	6.98 ± 1.15 µM	4.3 ± 0.77 µM	reduced the growth of T47D cancer cell spheroids	this effect was not provoked	did not increase the growth of ER+ BC cells	–
Cc1ccc(C2=CC(O)(c3ccccc3)N(Cc3ccccc3)C2=O)cc1C (centres unmarked) [compound 32, 1-benzyl-3-(3,4-dimethylphenyl)-5-hydroxy-5-phenyl-1H-pyrrol-2(5H)-one]	inhibited E2-induced ERα, pS2 and PR mRNA expression	significative reduction of PR-activated gene expression	2.5 fold	this effect was not observed	2.1 µM	> 10 µM	0.69 µM	0.6725 ± 0.06	0.6395 ± 0.09	5.34 ± 2.47 µM	1.52 ± 1.25 µM	reduced the growth of T47D cancer cell spheroids	this effect was not provoked	did not increase the growth of ER+ BC cells	0.762 ± 0.02
